This passage reports GI50 and TGI results from PubChem BioAssay (NCI).

Among the test systems are MALME-3M melanoma; CCRF-CEM leukemia; NCI/ADR-RES ovarian; UACC-257 melanoma; SW-620 colon; 786-0 renal; UO-31 renal; A549 NSCLC; RPMI-8226 leukemia; HCC-2998 colon.
What all share (assay): inhibition of tumour cell growth, NCI panel, 48 h

Several values for one entry are separate records, joined by “and”; a condition that tells them apart may be missing. Equal values may be shown once.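 Method: 48-hour compound exposure of cells in 96-well plates, five concentrations, linear interpolation of endpoints. GI50: concentration for 50% inhibition of growth. TGI is the concentration that stops growth completely.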

For `C=CCN1CC(=O)N2[C@@H](Cc3ccc(O)cc3F)C(=O)N(Cc3cccc(N4CC(N5CCN(CC)CC5)C4)n3)C[C@@H]2N1C(=O)NCc1ccccc1`, the GI50 with MALME-3M melanoma was 0.0292 µM; in the experiment with CCRF-CEM leukemia, 0.0398 µM; in the experiment on NCI/ADR-RES ovarian, 2.19 µM; in the experiment on UACC-257 melanoma it was 0.0648 µM; in the experiment on SW-620 colon, 0.107 µM; with 786-0 renal, 0.173 µM. Besides, the GI50 in the experiment with UO-31 renal was 0.919 µM; with A549 NSCLC, 0.0412 µM; in the experiment on RPMI-8226 leukemia it was 0.05 µM; in the experiment with HCC-2998 colon, 0.0687 µM. The TGI with MALME-3M melanoma was 0.211 µM; in the experiment on CCRF-CEM leukemia it was more than 100 µM; with NCI/ADR-RES ovarian, 32.8 µM; in the experiment with UACC-257 melanoma, 12.9 µM; in the experiment with SW-620 colon, more than 100 µM; with 786-0 renal, more than 100 µM. The TGI was more than 100 µM with UO-31 renal, more than 100 µM with A549 NSCLC, 26.2 µM in the experiment with RPMI-8226 leukemia and more than 100 µM in the experiment on HCC-2998 colon.
On to `Cc1cc(N=Nc2ccccc2C)ccc1N`, for which the GI50 was 16.2 µM in the experiment with MALME-3M melanoma; 0.435 µM in the experiment on CCRF-CEM leukemia; 13.7 µM in the experiment with NCI/ADR-RES ovarian; 20.2 µM in the experiment with UACC-257 melanoma; 14.8 µM with SW-620 colon; 2.96 µM with 786-0 renal. Moreover, the GI50 with UO-31 renal is 0.874 µM; in the experiment on A549 NSCLC, 3.42 µM; with RPMI-8226 leukemia, 1.69 µM; with HCC-2998 colon, 22 µM. Also, the TGI with MALME-3M melanoma was 38.6 µM and 39 µM; with CCRF-CEM leukemia, more than 100 µM; in the experiment on NCI/ADR-RES ovarian, 25 µM and 43.2 µM; in the experiment with UACC-257 melanoma it was 38 µM and 44.9 µM; in the experiment on SW-620 colon, 48.5 µM and 30.8 µM; in the experiment on 786-0 renal it was 27 µM and 15.8 µM. Also, the TGI in the experiment on UO-31 renal was 13.2 µM and 11.3 µM; in the experiment with A549 NSCLC it was 17.1 µM and 20.3 µM; in the experiment with RPMI-8226 leukemia, 34.5 µM; in the experiment with HCC-2998 colon, 24.9 µM and 53.5 µM.
Regarding `COC(=O)c1cncc(/C=C/c2c(C)cc(O)cc2C)c1`, the GI50 in the experiment on MALME-3M melanoma is 11.5 µM; in the experiment with CCRF-CEM leukemia it was 6.77 µM; in the experiment on NCI/ADR-RES ovarian, 7.3 µM; in the experiment on UACC-257 melanoma, 14.6 µM; in the experiment with SW-620 colon, 8.63 µM; with 786-0 renal, 9.42 µM. Moreover, the GI50 in the experiment with UO-31 renal is 14.5 µM; in the experiment with A549 NSCLC it was more than 17.5 µM; in the experiment on RPMI-8226 leukemia, 9.03 µM; in the experiment on HCC-2998 colon, 13.3 µM. Besides, the TGI in the experiment on MALME-3M melanoma, in the experiment with CCRF-CEM leukemia, in the experiment on NCI/ADR-RES ovarian, with UACC-257 melanoma, in the experiment on SW-620 colon and in the experiment on 786-0 renal was more than 25 µM each time. Also, the TGI in the experiment with UO-31 renal, in the experiment on A549 NSCLC, in the experiment on RPMI-8226 leukemia and in the experiment on HCC-2998 colon was more than 25 µM throughout.
With `COC(=O)[C@H]1CCCN1C(=O)[C@H]1CCCN1C(=O)[C@@H](Cc1c[nH]c2ccccc12)NC(=S)Nc1cc(C(F)(F)F)cc(C(F)(F)F)c1`, the GI50 in the experiment with MALME-3M melanoma is 1.75 µM; in the experiment on CCRF-CEM leukemia it was 3.14 µM; with NCI/ADR-RES ovarian it was 3.45 µM; with UACC-257 melanoma it was 1.85 µM; in the experiment on SW-620 colon, 2 µM; with 786-0 renal, 1.83 µM. Besides, the GI50 was 2.16 µM in the experiment with UO-31 renal, 1.83 µM with A549 NSCLC, 2.34 µM in the experiment on RPMI-8226 leukemia and 1.82 µM in the experiment with HCC-2998 colon. Further, the TGI is 3.31 µM in the experiment on MALME-3M melanoma; more than 100 µM in the experiment on CCRF-CEM leukemia; 12.5 µM with NCI/ADR-RES ovarian; 4.26 µM in the experiment on UACC-257 melanoma; 4.62 µM with SW-620 colon; 3.29 µM in the experiment with 786-0 renal. For the same compound, the TGI was found to be 6.31 µM in the experiment with UO-31 renal, 4.52 µM in the experiment on A549 NSCLC, 6.38 µM with RPMI-8226 leukemia and 3.3 µM in the experiment with HCC-2998 colon.
Turning to `O=C1OC(C(O)CO)C(O)=C1O` (stereo not given), the GI50 in the experiment on MALME-3M melanoma was 1540 µM and 1760 µM; in the experiment with CCRF-CEM leukemia, 239 µM and 275 µM; with NCI/ADR-RES ovarian, 2450 µM; in the experiment with UACC-257 melanoma, 1870 µM and > 3610 µM; in the experiment with SW-620 colon, 191 µM and 189 µM; in the experiment with 786-0 renal, 1790 µM and > 4300 µM. Further, the GI50 in the experiment with UO-31 renal was 1760 µM and 1380 µM; with A549 NSCLC it was 2510 µM and > 4270 µM; in the experiment with RPMI-8226 leukemia it was 1910 µM and 2400 µM; with HCC-2998 colon, more than 10000 µM. Moreover, the TGI in the experiment on MALME-3M melanoma is 2990 µM and 3550 µM; in the experiment with CCRF-CEM leukemia it was 576 µM and 792 µM; in the experiment on NCI/ADR-RES ovarian it was 5930 µM and > 6010 µM; in the experiment with UACC-257 melanoma it was 3730 µM and > 5150 µM; in the experiment with SW-620 colon, 408 µM and 412 µM; in the experiment on 786-0 renal, 3290 µM and > 5710 µM. For the same compound, the TGI with UO-31 renal is 3170 µM and 2720 µM; in the experiment on A549 NSCLC, 6010 µM and > 6460 µM; in the experiment with RPMI-8226 leukemia, 4500 µM and 6610 µM; in the experiment on HCC-2998 colon, more than 10000 µM.
As to `CCN(CC)CCCCCCNc1cc(OC)cc2cccnc12`, the GI50 was 2.03 µM with MALME-3M melanoma; 2.39 µM with CCRF-CEM leukemia; 7.16 µM with NCI/ADR-RES ovarian; 20.2 µM in the experiment on UACC-257 melanoma; 1.79 µM in the experiment with SW-620 colon; 2.11 µM in the experiment on 786-0 renal. The GI50 with UO-31 renal is 11.5 µM; in the experiment with A549 NSCLC, 4.35 µM; with RPMI-8226 leukemia it was 2.38 µM; in the experiment on HCC-2998 colon it was 2.32 µM. Also, the TGI amounted to 3.93 µM in the experiment with MALME-3M melanoma; 4.97 µM in the experiment with CCRF-CEM leukemia; 27.3 µM in the experiment with NCI/ADR-RES ovarian; 36.8 µM in the experiment with UACC-257 melanoma; 3.71 µM in the experiment with SW-620 colon; 4.32 µM with 786-0 renal. Besides, the TGI was determined as 29.5 µM in the experiment on UO-31 renal, 15.4 µM in the experiment on A549 NSCLC, 5.45 µM with RPMI-8226 leukemia and 5 µM in the experiment on HCC-2998 colon.
For `N#CC1=C(/N=C/c2ccccc2)Oc2c(ccc3ccccc23)C1c1ccccc1` (stereo not given), the GI50 with MALME-3M melanoma is 0.67 µM; in the experiment on CCRF-CEM leukemia, 0.462 µM; with NCI/ADR-RES ovarian it was 0.285 µM; in the experiment on UACC-257 melanoma, more than 100 µM; in the experiment on SW-620 colon it was 0.405 µM; in the experiment with 786-0 renal, 0.546 µM. Also, the GI50 in the experiment with UO-31 renal is 0.452 µM; with A549 NSCLC, 0.95 µM; in the experiment with RPMI-8226 leukemia it was 0.441 µM; with HCC-2998 colon, 1.2 µM. For the same compound, the TGI with MALME-3M melanoma is more than 100 µM; in the experiment with CCRF-CEM leukemia, more than 100 µM; with NCI/ADR-RES ovarian, 1.05 µM; in the experiment on UACC-257 melanoma it was more than 100 µM; in the experiment on SW-620 colon, more than 100 µM; in the experiment on 786-0 renal, more than 100 µM. Also, the TGI with UO-31 renal was more than 100 µM; in the experiment on A549 NSCLC it was more than 100 µM; with RPMI-8226 leukemia it was more than 100 µM; in the experiment on HCC-2998 colon, more than 67.9 µM.
